Data set [1] is described as follows: Microsomal stability, mouse liver microsomes. The format is in vitro ADME. As to the method:
(§1) Experiments were performed to assess the stability of the compounds in the presence of mouse and human liver microsomes. The experimental procedures there were used are described below. Examples of the percent remaining of the compound curves in the presence of human microsomes are shown in FIGS. 2A to 2F, and examples of the determined half-life are provided in TABLE 3.
(§2) Intermediate solution: 5 μL of compound and control stock solution (10 mM in dimethyl sulfoxide (DMSO)) were diluted with 495 μL of acetonitrile (ACN) (intermediate solution concentration: 100 μM, 99% ACN).
(§3) Working solution: 50 μL of compound and control intermediate solution (100 μM) were diluted with 450 μL of 100 mM potassium phosphate buffer (working solution concentration: 10 μM, 9.9% ACN).
(§4) The appropriate amount of NADPH powder was weighed and diluted into a 10 mM MgCl2 solution (working solution concentration: 10 unit/mL; final concentration in reaction system: 1 unit/mL).
(§5) The appropriate concentrations of microsome working solutions were prepared in 100 mM potassium phosphate buffer.
(§6) Cold (4° C.) acetonitrile (ACN) containing 200 ng/mL tolbutamide and 200 ng/mL labetalol as internal standards (IS) was used as the stop solution.
(§7) Using an Apricot automation workstation, 10 μL/well of compound working solution were added to all 96-well reaction plates except the blank (T0, T5, T10, T20, T30, T60, and NCF60). An Apricot automation workstation was used to add 80 μL/well of microsome solution to all reaction plates (Blank, T0, T5, T10, T20, T30, T60, and NCF60). All reaction plates containing mixtures of compound and microsomes were pre-incubated at 37° C. for 10 minutes. An Apricot automation workstation was used to add 10 μL/well of 100 mM potassium phosphate buffer to reaction plate NCF60. Reaction plate NCF60 was incubated at 37° C., and timer 1 was started. After pre-incubation, an Apricot automation workstation was used to add 10 μL/well of NADPH regenerating system to every reaction plate except NCF60 (Blank, T0, T5, T10, T20, T30, and T60) to start the reaction. The reaction plates were incubated at 37° C., and timer 2 was started. An Apricot automation workstation was used to add 300 μL/well of stop solution to each reaction plate at its appropriate end time point to terminate the reaction. Each plate was sealed and shaken for 10 minutes. After shaking, each plate was centrifuged at 4000 rpm and 4° C. for 20 minutes. During centrifugation, an Apricot automation workstation was used to add 300 μL/well of HPLC grade water to eight new 96-well plates. After centrifugation, an Apricot automation workstation was used to transfer 100 μL of supernatant from each reaction plate to its corresponding bioanaylsis plate. Each bioanalysis plate was sealed and shaken for 10 minutes prior to LC-MS/MS analysis.
(§8) The equation of first order kinetics was used to calculate T½: […]

Data set [2] in a line: Microsomal stability, human liver microsomes. The format is in vitro ADME. As to the method: as §1, §2, §3, §4, §5, §6, §7, §8
(In general: Liver microsomes are vesicles of endoplasmic reticulum, rich in cytochrome P450 enzymes.)

Data set [3] has as its target SARS-CoV-2 3CLP (Severe acute respiratory syndrome coronavirus 2 (2019-nCoV) (SARS-CoV-2), UniProt P0DTD1). As to the kind of experiment: SARS-CoV-2 3CLP FRET inhibition assay. The format is biochemical. The following applies: 80 nM SARS-CoV-2 3CLP, 100 μM FRET substrate, pH 7.8, 37° C.; read-out: 3CL Protease IC50. From the text:
Compounds described herein were screened for SARS-CoV-2 3CLP inhibition using a Fluorescence resonance energy transfer (FRET) assay at different compound concentrations. Examples of the resulting concentration response curves are shown in FIGS. 1A and 1B, and examples of the determined 50 percent inhibition concentration (IC50) are provided in TABLE 1.
A synthesized fluorescent substrate containing the cleavage site (indicated by the arrow, ↓) of SARS-CoV-2 3CLP (2-Abz-SVTLQ↓SG-Tyr(NO2)—R—NH2) was used for the fluorescence resonance energy transfer (FRET)-based cleavage assay. The protease reaction of SARS-CoV-2 3CLP towards fluorescent substrate was performed in activity buffer (20 mM Bis Tris, pH 7.8, 1 mM DTT) at 37° C. for 10 min. The final concentration of protease used in the assay was fixed at 80 nM and the concentrations of the substrate were varied from 0.1 to 500 μM. Reaction was started with the enzyme and the fluorescence signal of the Abz-SVTLQ peptide cleavage product was monitored at an emission wavelength of 420 nm with excitation at 320 nm, using an Flx800 fluorescence spectrophotometer (BioTek). Before kinetic calculations, it was verified that the proportionality between the fluorescence emitted and the amount of the substrate used in the assay was linear. The minimal concentration of the enzyme and time of reaction that gave a linear dependence of amount of generated product with time was chosen. Initial velocities in corresponding relative fluorescence units per unit of time (ARFU/s) were converted to the amount of the cleaved substrate per unit of time (M/s) by fitting to the calibration curve of free Aminobenzoyl-SVTLQ. All data are corrected for inner filter effects by an adopted literature protocol. In short, the fluorescence signal (RFU) at each substrate concentration was determined and defined as f(FRET). Then, 5 μL free Aminobenzoyl-SVTLQ at final 5 μM was added to each concentration and fluorescence was taken f(FRET+Aminobenzoyl-SVTLQ). Simultaneously, a reference reading was taken with the same free Aminobenzoyl-SVTLQ concentration and defined as f(ref). The inner-filter correction was obtained as:
Stock solutions of the compounds were prepared with DMSO. For the determination of the IC50, 80 nM of SARS-CoV-2 3CLP was incubated with the compounds at various concentrations from 0 to 100 μM in 20 mM Bis-Tris, pH 7.8, 1 mM DTT at 37° C. for 10 min. The protease reaction was started by addition of 100 μM of the substrate. The GraphPad Prism 6.0 software (GraphPad) was used for the calculation of the IC50 values.

In data set [4] the test system is SARS-CoV-2. The data set is described as follows: SARS-CoV-2 plaque reduction assay in Vero E6 cells. The note with it: Severe acute respiratory syndrome coronavirus 2, Vero C1008, 48 h, read-out: SARS-CoV-2 Antiviral EC50. The format is cell-based. (Plaque reduction counts the foci of infection that form in a cell layer.)
Data set [5] can be described thus: in vitro. In kind it is cell-based. The following applies: male, human (A549); green monkey (Vero E6). The procedure: Cell viability was measured using the CellTiter-Glo luminescent cell viability assay (Promega). Separately A549 (human lung epithelial) cells and VeroE6 cells were seeded at 5×10^3 cells/well in 96-well plates and incubated overnight before treatment. Compounds were solubilized in DMSO and added to cells in an eight-point four-fold serial dilution (200 μM to 0.0122 μM). Cells were incubated in the presence of compounds for 24 hours before addition of the luminescence substrate and measurement of ATP activity according to manufacturer's instructions. The percentage of viable cells was calculated relative to cells treated with solvent alone (0.5% DMSO).

The mark [6] stands for this setting: mouse liver microsomes, NADPH, 37° C., read-out: Mouse Microsomes Half-life.
The mark [7] stands for this setting: human liver microsomes, NADPH, 37° C., read-out: Human Microsomes Half-life.

Bounds are passed on as bounds.

This note sets out measurements from patent US20230399296A1, “RNA VIRUS INHIBITOR COMPOUNDS WITH IMPROVED METABOLIC STABILITY AND USES THEREOF” (priority 2022, published 2023).

The term half-life denotes the time in which the quantity being followed falls by half. What is called IC50 is the concentration that gives 50% inhibition. A word on the EC50: it is the concentration giving half of the maximal effect. As a reminder, the CC50 is the concentration that lowers cell viability or growth by half.

On to `COc1cccc2[nH]c(C(=O)N[C@@H](CC(C)C)C(=O)N[C@@H](C[C@@H]3CCCNC3=O)C(=O)CO)cc12` [AVI-8004, reference compound], for which the half-life at 1 μM in data set [1] (mouse, microsomes) turned out to be 12 min; in data set [2] (human, microsomes), 34 min.

Consider `COc1cccc2[nH]c(C(=O)N[C@@H](CC(C)C)C(=O)N[C@H](C#N)C[C@@H]3CCCNC3=O)cc12` [AVI-8059, reference compound], for which the half-life at 1 μM in data set [1] (mouse, microsomes) was 10 min; in data set [2] (human, microsomes) it was 16 min.

`O=C(N[C@@H](CC1CC1)C(=O)N[C@@H](C[C@@H]1CCCNC1=O)C(=O)CO)c1cc2cc(F)cc(F)c2[nH]1` [Compound 1, N-[(2S)-3-cyclopropyl-1-({(2S)-4-hydroxy-3-oxo-1-[(3S)-2-oxopiperidin-3-yl]butan-2-yl}amino)-1-oxopropan-2-yl]-5,7-difluoro-1H-indole-2-carboxamide]: in data set [3], the IC50 is less than 0.05 µM. Also, the EC50 in data set [4] is less than 10 µM. In data set [5], the half-maximal cytotoxic concentration (CC50) at 24 h was more than 200 µM. Also, the results for the half-life at 1 μM in data set [1] (setting [6]) and in data set [2] (setting [7]) were 57 min and 46 min, respectively.

For `O=C(N[C@@H](CC1CC1)C(=O)N[C@@H](C[C@@H]1CCCNC1=O)C(=O)CO)c1cc2cccc(Cl)c2[nH]1` [Compound 2, 7-chloro-N-[(2S)-3-cyclopropyl-1-({(2S)-4-hydroxy-3-oxo-1-[(3S)-2-oxopiperidin-3-yl]butan-2-yl}amino)-1-oxopropan-2-yl]-1H-indole-2-carboxamide], in data set [3], the half-maximal inhibitory concentration (IC50) is less than 0.05 µM. The EC50 in data set [4] was less than 5 µM. This molecule gave a half-maximal cytotoxic concentration (CC50) at 24 h in data set [5] of more than 200 µM. The half-life at 1 μM in data set [1] (setting [6]) is 15 min; in data set [2] (setting [7]) it was 26 min.

For `O=C(N[C@@H](CC1CC1)C(=O)N[C@@H](C[C@@H]1CCNC1=O)C(=O)CO)c1cc2cc(F)cc(F)c2[nH]1` [Compound 3, N-[(2S)-3-cyclopropyl-1-({(2S)-4-hydroxy-3-oxo-1-[(3S)-2-oxopyrrolidin-3-yl]butan-2-yl}amino)-1-oxopropan-2-yl]-5,7-difluoro-1H-indole-2-carboxamide], the half-inhibitory concentration (IC50) in data set [3] was less than 0.01 µM. Besides, the 50% effective concentration (EC50) in data set [4] is less than 5 µM. The molecule also yielded a CC50 at 24 h in data set [5] of more than 200 µM. In addition, the values for the half-life at 1 μM in data set [1] (setting [6]) and in data set [2] (setting [7]) were 124 min and more than 145 min, respectively.

As for `O=C(N[C@@H](CC1CC1)C(=O)N[C@@H](C[C@@H]1CCNC1=O)C(=O)CO)c1cc2cccc(Cl)c2[nH]1` [Compound 4, 7-chloro-N-[(2S)-3-cyclopropyl-1-({(2S)-4-hydroxy-3-oxo-1-[(3S)-2-oxopyrrolidin-3-yl]butan-2-yl}amino)-1-oxopropan-2-yl]-1H-indole-2-carboxamide], the half-inhibitory concentration (IC50) in data set [3] was less than 0.01 µM. Also, the EC50 in data set [4] is less than 5 µM. Moreover, the CC50 at 24 h in data set [5] was more than 200 µM. Moreover, the figures for the half-life at 1 μM in data set [1] (setting [6]) and in data set [2] (setting [7]) were 38 min and 76 min, respectively.

For `O=C(N[C@@H](CC1CC1)C(=O)N[C@@H](C[C@@H]1CCNC1=O)C(=O)CO)c1cc2cccc(F)c2[nH]1` [Compound 5, N-[(2S)-3-cyclopropyl-1-({(2S)-4-hydroxy-3-oxo-1-[(3S)-2-oxopyrrolidin-3-yl]butan-2-yl}amino)-1-oxopropan-2-yl]-7-fluoro-1H-indole-2-carboxamide], in data set [3], the IC50 is less than 0.05 µM. In addition, the EC50 in data set [4] lay in the range of 5 to 10 µM. Besides, in data set [5], the 50% cytotoxic concentration (CC50) at 24 h is more than 200 µM. Further, the half-life at 1 μM in data set [1] (setting [6]) is 124 min; in data set [2] (setting [7]), more than 145 min.

In the case of `O=C(N[C@@H](CC1CC1)C(=O)N[C@@H](C[C@@H]1CCCNC1=O)C(=O)CO)c1cc2cccc(F)c2[nH]1` [Compound 9, N-[(2S)-3-cyclopropyl-1-({(2S)-4-hydroxy-3-oxo-1-[(3S)-2-oxopiperidin-3-yl]butan-2-yl}amino)-1-oxopropan-2-yl]-7-fluoro-1H-indole-2-carboxamide], the IC50 in data set [3] was less than 0.01 µM. Also, in data set [4], the EC50 is less than 5 µM. Also, in data set [5], the CC50 at 24 h is more than 200 µM. Besides, the half-life at 1 μM in data set [1] (setting [6]) is 91 min; in data set [2] (setting [7]), 74 min.

Turning to `CC(C)[C@H](N)C(=O)OCC(=O)[C@H](C[C@@H]1CCCNC1=O)NC(=O)[C@H](CC1CC1)NC(=O)c1cc2cc(F)cc(F)c2[nH]1.Cl` [Compound 17, (3S)-3-{[3-cyclopropyl-N-(5,7-difluoro-1H-indole-2-carbonyl)-L-alanyl]amino}-2-oxo-4-[(3S)-2-oxopiperidin-3-yl]butyl L-valinate hydrochloride Salt], in data set [3], the concentration for half-maximal inhibition (IC50) was less than 0.05 µM. The EC50 in data set [4] was less than 5 µM. Also, in data set [5], the CC50 at 24 h was more than 200 µM. Moreover, the half-life at 1 μM in data set [1] (setting [6]) and in data set [2] (setting [7]) was 6 min each time.

For the molecule `N#C[C@H](C[C@@H]1CCCNC1=O)NC(=O)[C@H](CC1CC1)NC(=O)c1cc2cccc(Cl)c2[nH]1` [PBI-0451, reference compound], the half-life at 1 μM worked out at 12 min in data set [1] (mouse, microsomes) and 11 min in data set [2] (human, microsomes).

On to `CC(C)(C)[C@H](NC(=O)C(F)(F)F)C(=O)N1C[C@H]2[C@@H]([C@H]1C(=O)N[C@H](C#N)C[C@@H]1CCNC1=O)C2(C)C` [nirmatrelvir, reference compound], for which the half-life at 1 μM in data set [1] (mouse, microsomes) was 15 min; in data set [2] (human, microsomes), 40 min.
